Measured values from ChEMBL document CHEMBL5726074, “Histone demethylase inhibitors” (2017).

Legend:
[1] = target: Lysine-specific demethylase 5A (Homo sapiens, UniProt P29375); assay: Enzymatic Assay: The enzymatic assay of Jarid1A activity is based upon Time Resolved-Fluorescence Resonance Energy Transfer (TR-FRET) detection. The ability of test compounds to inhibit the activity of Jarid1A was determined in 384-well plate format under the following reaction conditions: 1 nM Jarid1A, 300 nM H3K4me3-biotin labeled peptide (Anaspec cat #64357), 2 μM alpha-ketoglutaric acid in …
Lysine-specific demethylase 5A, sequence (P29375 whole entry): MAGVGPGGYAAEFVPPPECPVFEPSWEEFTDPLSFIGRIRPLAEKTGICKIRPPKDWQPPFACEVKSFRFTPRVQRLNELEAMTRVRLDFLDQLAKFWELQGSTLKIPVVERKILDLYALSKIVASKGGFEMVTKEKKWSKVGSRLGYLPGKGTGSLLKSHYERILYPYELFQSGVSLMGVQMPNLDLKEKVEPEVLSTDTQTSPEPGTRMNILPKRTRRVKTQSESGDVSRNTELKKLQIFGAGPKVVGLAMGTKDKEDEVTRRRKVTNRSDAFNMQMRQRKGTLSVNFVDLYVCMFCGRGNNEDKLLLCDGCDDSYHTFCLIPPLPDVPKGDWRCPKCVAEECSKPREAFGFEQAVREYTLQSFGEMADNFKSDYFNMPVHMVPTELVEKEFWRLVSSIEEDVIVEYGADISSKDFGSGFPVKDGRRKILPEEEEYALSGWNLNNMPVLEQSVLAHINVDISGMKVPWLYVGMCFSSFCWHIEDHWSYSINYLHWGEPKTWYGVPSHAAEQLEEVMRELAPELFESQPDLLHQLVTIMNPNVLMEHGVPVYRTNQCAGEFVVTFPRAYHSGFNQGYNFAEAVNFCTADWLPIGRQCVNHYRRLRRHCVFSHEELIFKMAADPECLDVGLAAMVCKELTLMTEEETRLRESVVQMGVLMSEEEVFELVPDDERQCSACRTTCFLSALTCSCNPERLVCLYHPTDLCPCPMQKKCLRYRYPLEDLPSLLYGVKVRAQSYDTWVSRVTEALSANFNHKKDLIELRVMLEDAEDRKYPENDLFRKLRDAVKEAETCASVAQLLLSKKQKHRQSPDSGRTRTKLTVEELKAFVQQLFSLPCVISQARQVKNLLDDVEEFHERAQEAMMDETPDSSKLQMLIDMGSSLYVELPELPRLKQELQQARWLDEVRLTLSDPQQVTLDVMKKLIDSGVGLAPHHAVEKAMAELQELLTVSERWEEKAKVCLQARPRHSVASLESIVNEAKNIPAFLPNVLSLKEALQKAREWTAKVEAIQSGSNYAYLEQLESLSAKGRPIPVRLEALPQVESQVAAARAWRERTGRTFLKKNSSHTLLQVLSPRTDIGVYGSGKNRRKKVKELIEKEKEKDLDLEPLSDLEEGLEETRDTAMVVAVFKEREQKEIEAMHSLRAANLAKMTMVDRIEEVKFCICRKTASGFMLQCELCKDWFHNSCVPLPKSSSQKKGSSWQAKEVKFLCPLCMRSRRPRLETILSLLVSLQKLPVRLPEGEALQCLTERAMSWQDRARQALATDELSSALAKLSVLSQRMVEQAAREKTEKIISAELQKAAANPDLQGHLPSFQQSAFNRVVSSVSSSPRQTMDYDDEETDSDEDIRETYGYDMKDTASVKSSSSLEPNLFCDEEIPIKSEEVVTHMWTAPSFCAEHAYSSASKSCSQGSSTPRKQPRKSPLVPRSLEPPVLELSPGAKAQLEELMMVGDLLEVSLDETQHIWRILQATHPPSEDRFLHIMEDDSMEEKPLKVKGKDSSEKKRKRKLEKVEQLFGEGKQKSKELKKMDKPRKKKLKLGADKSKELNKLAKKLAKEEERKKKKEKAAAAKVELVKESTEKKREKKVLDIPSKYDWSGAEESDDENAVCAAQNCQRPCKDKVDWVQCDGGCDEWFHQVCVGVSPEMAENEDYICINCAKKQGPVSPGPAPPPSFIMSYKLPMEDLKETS

[2] = target: Lysine-specific demethylase 5B (Homo sapiens, UniProt Q9UGL1); assay: Enzymatic Assay: The ability of test compounds to inhibit the activity of Jarid1B was determined in 384-well plate format under the following reaction conditions: 0.8 nM Jarid1B, 300 nM H3K4me3-biotin labeled peptide (Anaspec cat #64357), 2 μM alpha-ketoglutaric acid in assay buffer of 50 mM HEPES, pH7.3, 0.005% Brij35, 0.5 mM TCEP, 0.2 mg/ml BSA, 50 μM sodium L-ascorbate, and 2 μM ammonium iron(II) sulfate. Reaction product was determined quantitatively by TR-FRET after the addition of detection reagent Phycolink Streptavidin-allophycocyanin (Prozyme) and Europium-anti-mono- or di-methylated histone H3 lysine 4 (H3K4me1-2) antibody (PerkinElmer) in the presence of 5 mM EDTA in LANCE detection buffer (PerkinElmer) at a final concentration of 25 nM and 1 nM, respectively.The assay reaction was initiated by the following: 2 μl of the mixture of 900 nM H3K4me3-biotin labeled peptide and 6 μM alpha-ketoglutaric acid with 2 μl of 11-point serial diluted inhibitor in 3% DMSO was added to each well of the plate, followed by the addition of 2 μl of 2.4 nM Jarid1B to initiate the reaction. The reaction mixture was incubated at room temperature for 30 minutes, and terminated by the addition of 6 μl of 5 mM EDTA in LANCE detection buffer containing 50 nM Phycolink Streptavidin-allophycocyanin and 2 nM Europium-anti-H3K4me1-2 antibody. […]
Lysine-specific demethylase 5B, sequence (Q9UGL1 whole entry): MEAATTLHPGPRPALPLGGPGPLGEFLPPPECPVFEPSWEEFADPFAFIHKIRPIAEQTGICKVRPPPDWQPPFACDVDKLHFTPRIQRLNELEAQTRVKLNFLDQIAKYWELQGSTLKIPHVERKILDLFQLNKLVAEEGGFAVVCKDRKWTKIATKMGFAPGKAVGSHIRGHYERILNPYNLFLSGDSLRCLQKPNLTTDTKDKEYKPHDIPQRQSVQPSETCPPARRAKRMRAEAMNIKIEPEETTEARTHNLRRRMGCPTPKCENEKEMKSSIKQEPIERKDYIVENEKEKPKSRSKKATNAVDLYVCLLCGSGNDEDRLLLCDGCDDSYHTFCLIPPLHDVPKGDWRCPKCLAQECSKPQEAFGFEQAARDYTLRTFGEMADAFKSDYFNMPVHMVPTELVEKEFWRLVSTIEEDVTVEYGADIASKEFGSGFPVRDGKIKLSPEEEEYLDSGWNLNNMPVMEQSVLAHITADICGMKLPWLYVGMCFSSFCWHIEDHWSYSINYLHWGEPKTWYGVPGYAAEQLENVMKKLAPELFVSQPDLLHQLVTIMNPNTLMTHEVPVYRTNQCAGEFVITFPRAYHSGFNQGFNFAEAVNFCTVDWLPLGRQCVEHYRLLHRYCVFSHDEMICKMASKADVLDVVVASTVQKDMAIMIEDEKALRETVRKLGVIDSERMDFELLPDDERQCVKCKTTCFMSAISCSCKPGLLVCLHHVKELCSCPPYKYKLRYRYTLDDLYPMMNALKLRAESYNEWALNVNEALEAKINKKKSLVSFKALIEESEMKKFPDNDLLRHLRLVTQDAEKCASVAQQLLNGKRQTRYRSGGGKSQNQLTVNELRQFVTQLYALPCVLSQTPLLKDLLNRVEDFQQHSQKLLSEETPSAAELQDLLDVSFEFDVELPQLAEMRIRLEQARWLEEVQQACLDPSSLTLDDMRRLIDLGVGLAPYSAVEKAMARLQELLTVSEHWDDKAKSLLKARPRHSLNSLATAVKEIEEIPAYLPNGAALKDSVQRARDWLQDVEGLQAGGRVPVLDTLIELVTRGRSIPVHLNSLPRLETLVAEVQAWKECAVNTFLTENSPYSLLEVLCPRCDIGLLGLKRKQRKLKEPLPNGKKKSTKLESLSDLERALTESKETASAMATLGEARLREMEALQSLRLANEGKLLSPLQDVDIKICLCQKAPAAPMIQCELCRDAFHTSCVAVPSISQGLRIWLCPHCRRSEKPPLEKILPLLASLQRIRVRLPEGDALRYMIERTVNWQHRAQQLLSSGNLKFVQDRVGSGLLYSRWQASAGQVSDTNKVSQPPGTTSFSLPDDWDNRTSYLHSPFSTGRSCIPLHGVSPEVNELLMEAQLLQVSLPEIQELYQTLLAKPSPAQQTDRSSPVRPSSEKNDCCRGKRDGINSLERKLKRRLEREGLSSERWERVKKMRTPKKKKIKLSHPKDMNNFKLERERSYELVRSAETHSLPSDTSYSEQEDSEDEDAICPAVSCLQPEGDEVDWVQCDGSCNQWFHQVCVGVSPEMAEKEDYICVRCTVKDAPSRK

[3] = target: T1, Lysine-specific demethylase 4C (Homo sapiens, UniProt Q9H3R0); assay: Enzymatic Assay: The ability of test compounds to inhibit the activity of JMJD2C was determined in 384-well plate format under the following reaction conditions: 0.3 nM JMJD2C, 300 nM H3K9me3-biotin labeled peptide (Anaspec cat #64360), 2 μM alpha-ketoglutaric acid in assay buffer of 50 mM HEPES, pH7.3, 0.005% Brij35, 0.5 mM TCEP, 0.2 mg/ml BSA, 50 μM sodium L-ascorbate, and 2 μM ammonium iron(II) sulfate. Reaction product was determined quantitatively by TR-FRET after the addition of detection reagent Phycolink Streptavidin-allophycocyanin (Prozyme) and Europium-anti-di-methylated histone H3 lysine 9 (H3K9me2) antibody (PerkinElmer) in the presence of 5 mM EDTA in LANCE detection buffer (PerkinElmer) at a final concentration of 50 nM and 1 nM, respectively.The assay reaction was initiated by the following: 2 μl of the mixture of 900 nM H3K9me3-biotin labeled peptide and 6 μM alpha-ketoglutaric acid with 2 μl of 11-point serial diluted inhibitor in 3% DMSO were added to each well of the plate, followed by the addition of 2 μl of 0.9 nM JMJD2C to initiate the reaction. The reaction mixture was incubated at room temperature for 30 minutes, and terminated by the addition of 6 μl of 5 mM EDTA in LANCE detection buffer containing 100 nM Phycolink Streptavidin-allophycocyanin and 2 nM Europium-anti-H3K9me2 antibody. […]
T1 sequence (Q9H3R0 whole entry): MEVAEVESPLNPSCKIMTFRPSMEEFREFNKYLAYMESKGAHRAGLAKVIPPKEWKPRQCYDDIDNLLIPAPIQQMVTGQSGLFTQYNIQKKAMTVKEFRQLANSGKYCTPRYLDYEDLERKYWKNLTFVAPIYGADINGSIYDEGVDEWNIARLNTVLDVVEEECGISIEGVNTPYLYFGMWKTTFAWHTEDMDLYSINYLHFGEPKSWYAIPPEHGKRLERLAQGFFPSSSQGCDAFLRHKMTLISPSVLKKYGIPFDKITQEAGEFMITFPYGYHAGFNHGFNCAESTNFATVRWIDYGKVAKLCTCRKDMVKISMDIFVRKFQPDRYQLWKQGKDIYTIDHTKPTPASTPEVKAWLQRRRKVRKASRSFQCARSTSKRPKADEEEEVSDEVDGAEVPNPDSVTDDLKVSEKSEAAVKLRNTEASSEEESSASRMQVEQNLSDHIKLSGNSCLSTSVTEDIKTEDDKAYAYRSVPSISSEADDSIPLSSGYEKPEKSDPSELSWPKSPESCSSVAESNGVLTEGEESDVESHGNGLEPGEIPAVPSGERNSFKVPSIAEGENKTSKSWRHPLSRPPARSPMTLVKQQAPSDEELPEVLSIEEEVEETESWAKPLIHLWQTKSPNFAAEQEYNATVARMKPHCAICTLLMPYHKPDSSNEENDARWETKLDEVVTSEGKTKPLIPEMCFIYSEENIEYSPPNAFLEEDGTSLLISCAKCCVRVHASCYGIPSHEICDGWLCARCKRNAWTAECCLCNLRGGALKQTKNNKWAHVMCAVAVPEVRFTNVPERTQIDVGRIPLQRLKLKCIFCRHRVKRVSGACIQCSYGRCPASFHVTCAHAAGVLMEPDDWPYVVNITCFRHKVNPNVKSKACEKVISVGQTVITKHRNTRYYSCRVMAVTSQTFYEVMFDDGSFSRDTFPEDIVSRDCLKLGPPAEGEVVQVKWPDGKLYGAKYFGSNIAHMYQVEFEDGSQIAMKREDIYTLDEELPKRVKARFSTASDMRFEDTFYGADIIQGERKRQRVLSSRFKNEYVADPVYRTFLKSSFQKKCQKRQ

- IC50 [1]: < 100 nM
- IC50 [2]: < 100 nM
- IC50 [3]: < 100 nM
SMILES: O=C(O)c1ccncc1NCC1CCc2ccccc21 (stereo not drawn)
